In US20200095241A1, “SUBSTITUTED 1,2,4-THIADIAZOLYLPYRROLONES AND 1,2,4-THIADIAZOLYLHYDANTOINS AND SALTS THEREOF AND USE THEREOF AS HERBICIDES” (Bayer CropScience Aktiengesellschaft, priority 2016, published 2020):

Tests used:
[1] = system: Abutilon theophrasti; test: Post-emergence herbicidal action; type: in vivo; details: Abutilon theophrasti, 504 h, 1280 g/ha, about 3 weeks after treatment, read-out: Abutilon theophrasti, herbicidal activity rated visually
Protocol: (§1) Seeds of monocotyledonous and dicotyledonous weeds and crop plants were placed in sandy loam in plastic or wood-fiber pots, covered with soil and cultivated in a greenhouse under controlled growth conditions. 2 to 3 weeks after sowing, the test plants were treated at the one-leaf stage. The compounds of the invention, formulated in the form of wettable powders (WP) or as emulsion concentrates (EC), were then sprayed onto the green parts of the plants as aqueous suspension or emulsion with addition of 0.5% additive at a water application rate of 600 l/ha (converted). After the test plants had been kept in the greenhouse under optimum growth conditions for about 3 weeks, the activity of the preparations was rated visually in comparison to untreated controls. For example, 100% activity=the plants have died, 0% activity=like control plants. Tables A1 to A12 below show the effects of selected compounds of the general formula (I) according to Tables I.1 to I.44 on various harmful plants and an application rate corresponding to 1280 g/ha or 320 g/ha, which were obtained by the experimental procedure mentioned above.

[2] = system: Amaranthus retroflexus; test: Post-emergence herbicidal action; type: in vivo; details: 1280 g/ha, about 3 weeks after treatment
Protocol: as §1

[3] = system: Echinochloa crus-galli; test: Post-emergence herbicidal action; type: in vivo; details: 1280 g/ha, about 3 weeks after treatment
Protocol: as §1

[4] = system: Matricaria inodora; test: Post-emergence herbicidal action; type: in vivo; details: 1280 g/ha, about 3 weeks after treatment
Protocol: as §1

[5] = system: Setaria viridis; test: Post-emergence herbicidal action; type: in vivo; details: Setaria viridis, 504 h, 1280 g/ha, about 3 weeks after treatment, read-out: Setaria viridis, herbicidal activity rated visually
Protocol: as §1

[6] = system: Stellaria media; test: Post-emergence herbicidal action; type: in vivo; details: Stellaria media, 504 h, 1280 g/ha, about 3 weeks after treatment, read-out: Stellaria media, herbicidal activity rated visually
Protocol: as §1

[7] = system: Abutilon theophrasti; test: Pre-emergence herbicidal action; type: in vivo; details: 1280 g/ha, after about 3 weeks
From the text: (§2) Seeds of monocotyledonous and dicotyledonous weed plants and crop plants were placed in plastic or organic planting pots and covered with soil. The compounds of the invention, formulated in the form of wettable powders (WP) or as emulsion concentrates (EC), were then applied onto the surface of the covering soil as aqueous suspension or emulsion with addition of 0.5% additive at a water application rate of 600 l/ha (converted). After the treatment, the pots were placed in a greenhouse and kept under good growth conditions for the test plants. After about 3 weeks, the effect of the preparations was scored visually in comparison with untreated controls as percentages. For example, 100% activity=the plants have died, 0% activity=like control plants. Tables B1 to B15 below show the effects of selected compounds of the general formula (I) according to Tables I.1 to I.44 on various harmful plants and an application rate corresponding to 1280 g/ha or 320 g/ha, which were obtained by the experimental procedure mentioned above.

[8] = system: Amaranthus retroflexus; test: Pre-emergence herbicidal action; type: in vivo; details: after about 3 weeks
From the text: as §2

[9] = system: Echinochloa crus-galli; test: Pre-emergence herbicidal action; type: in vivo; details: 1280 g/ha, after about 3 weeks
From the text: as §2

[10] = system: Lolium rigidum; test: Pre-emergence herbicidal action; type: in vivo; details: 1280 g/ha, after about 3 weeks
From the text: as §2

[11] = system: Matricaria inodora; test: Pre-emergence herbicidal action; type: in vivo; details: Tripleurospermum inodorum, 504 h, after about 3 weeks, read-out: Matricaria inodora, herbicidal effect scored visually
From the text: as §2

[12] = system: Poa annua; test: Pre-emergence herbicidal action; type: in vivo; details: 1280 g/ha, after about 3 weeks
From the text: as §2

[13] = system: Setaria viridis; test: Pre-emergence herbicidal action; type: in vivo; details: Setaria viridis, 504 h, 1280 g/ha, after about 3 weeks, read-out: Setaria viridis, herbicidal effect scored visually
From the text: as §2

[14] = system: Stellaria media; test: Pre-emergence herbicidal action; type: in vivo; details: Stellaria media, 504 h, 1280 g/ha, after about 3 weeks, read-out: Stellaria media, herbicidal effect scored visually
From the text: as §2

[15] = system: Alopecurus myosuroides; test: Post-emergence herbicidal action; type: in vivo; details: 1280 g/ha, about 3 weeks after treatment
Protocol: as §1

[16] = system: Pharbitis purpurea; test: Post-emergence herbicidal action; type: in vivo; details: 1280 g/ha, about 3 weeks after treatment
Protocol: as §1

[17] = system: Polygonum convolvulus; test: Post-emergence herbicidal action; type: in vivo; details: 1280 g/ha, about 3 weeks after treatment
Protocol: as §1

[18] = system: Veronica persica; test: Post-emergence herbicidal action; type: in vivo; details: 320 g/ha, about 3 weeks after treatment
Protocol: as §1

[19] = system: Viola tricolor; test: Post-emergence herbicidal action; type: in vivo; details: 504 h, 1280 g/ha, about 3 weeks after treatment, read-out: Viola tricolor, herbicidal activity rated visually
Protocol: as §1

[20] = system: Veronica persica; test: Pre-emergence herbicidal action; type: in vivo; details: 1280 g/ha, after about 3 weeks
From the text: as §2

[21] = system: Viola tricolor; test: Pre-emergence herbicidal action; type: in vivo; details: Viola tricolor, 504 h, 1280 g/ha, after about 3 weeks, read-out: Viola tricolor, herbicidal effect scored visually
From the text: as §2

[22] = biological target: T1, photosystem II (PS II) (Spinacia oleracea, UniProt P69560); test: Measurement of the PS II activity in thylakoid membranes (DCPIP reduction); type: biochemical; details: 100 μM test compound, spinach thylakoid membranes, DCPIP 120 μM, 10 min at 22° C. with exposure to light; read-out: Effect (inhibition of PS II activity)
T1 construct: the chloroplasts were osmotically ruptured and the thylakoid membranes were then obtained by centrifugation; from tissue; host or cells: fresh spinach leaves; thylakoid membranes isolated from chloroplasts
Protocol: Cooled fresh spinach leaves were comminuted and homogenized in 50 mM phosphate buffer, pH 6.8. 10 mM KCl, 0.34 M sucrose (sucrose buffer) (blender, 1 g of plant material/ml). The homogenate was subsequently filtered through 4 layers of Miracloth and the chloroplasts were isolated by centrifugation, i.e. 10 min of centrifugation at 4400×g (4° C.). The sediment was suspended in 25 ml of sucrose buffer and re-centrifuged for 10 min at 4400×g (4° C.). The sediment was then suspended in 40 ml of 50 mM phosphate buffer, pH 6.8, 10 mM KCl, without sucrose. In this step, the chloroplasts were osmotically ruptured and the thylakoid membranes were then obtained by centrifugation (10 min, 4400×g, 4° C.). The membrane sediment was finally suspended in 20 ml of 50 mM phosphate buffer, pH 6.8, 10 mM KCl. Following protein determination and activity determination, the membrane suspension was divided into aliquots and frozen in liquid nitrogen. The aliquots were stored at −80° C. Under these conditions, the photosystem II preparation was storage stable for at least three months. The activity determination of photosystem II (PS II) was then carried out using the following test principle:
The electron transfer from PS II to an artificial electron acceptor, 2,6-dichlorophenolindophenol (DCPIP), was measured with exposure to light. The concentration of the blue oxidized form of DCPIP was determined spectrophotometrically at wavelength λ=595 nm. […] The activity determination was carried out in microtiter plates (96 cavities) in a reaction volume of 200 μl. Here, 155 μl of dilute membrane suspension were initially charged in 50 mM of phosphate buffer, pH 6.8, 10 mM KCl. Depending on the activity of the PS II preparation, the dilution was adjusted such that the measurement of the decrease in absorption (λ=595 nm) was linear for at least 10 min. In each case 5 μl solution of the test compounds of a concentration of 100 μM in DMSO were added to the enzyme suspension; controls contained 5 μl DMSO; the final concentration of DMSO in the reaction batch was thus 2.5% (v/v); this concentration had no adverse effect on the enzymatic activity. On each microtiter plate, a known PS II inhibitor, for example metribuzin, was used as standard, which allowed the quality of the PS II test to be assessed. The reaction was started by addition of 40 μl DCPIP solution (600 μM in distilled water); the final concentration of DCPIP was 120 μM. Measurement of absorption was carried out over a period of 10 min at 22° C. and with exposure to light. Using metribuzin as comparative substance, the results for the efficacy of the compounds of the general formula (I) at 100 μM are stated in the table below using the following classification: ++++ (inhibition≥90%), +++ ([…]≥70%), ++ (70%>inhibition≥50%), + (50%>inhibition≥30%).

**Q.** Which results are given for `COC(=O)OC1C(C)=C(C)C(=O)N1c1nc(C2CC2)ns1` (stereo not drawn) [I.17-11, 3,4-Dimethyl-5-methoxycarbonyloxy-1-[3-(cyclopropyl)-1,2,4-thiadiazol-5-yl]-1,5-dihydro-2H-pyrrol-2-one]?
**A.** pest or weed control at 1280 g/ha [1]: 100%; Amaranthus retroflexus, herbicidal activity rated visually [2]: 100%; Echinochloa crus-galli, herbicidal activity rated visually [3]: 100%; Matricaria inodora, herbicidal activity rated visually [4]: 100%; pest or weed control at 1280 g/ha [5]: 100%; pest or weed control at 1280 g/ha [6]: 100%; Abutilon theophrasti, herbicidal effect scored visually [7]: 100%; Amaranthus retroflexus, herbicidal effect scored visually ([8]; 1280 g/ha): 100%; Echinochloa crus-galli, herbicidal effect scored visually [9]: 100%; Lolium rigidum, herbicidal effect scored visually [10]: 90%; pest or weed control at 1280 g/ha ([11]; 1280 g/ha): 100%; Poa annua, herbicidal effect scored visually [12]: 100%; pest or weed control at 1280 g/ha [13]: 100%; pest or weed control at 1280 g/ha [14]: 100%

**Q.** With `CN1CC(O)N(c2ncns2)C1=O` (stereo not drawn) [I.13-1, 4-Hydroxy-1-methyl-3-[1,2,4-thiadiazol-5-yl]-imidazolidin-2-one] as the molecule, how does the pest or weed control at 1280 g/ha [1] read?
**A.** 100%

**Q.** And the “Alopecurus myosuroides, herbicidal activity rated visually” value [15]?
**A.** 80%

**Q.** And the “Amaranthus retroflexus, herbicidal activity rated visually” value [2]?
**A.** 100%

**Q.** What about the “Pharbitis purpurea, herbicidal activity rated visually” value [16] of the same molecule?
**A.** 90%

**Q.** What about the “Polygonum convolvulus, herbicidal activity rated visually” value [17] of the same molecule?
**A.** 100%

**Q.** What about the pest or weed control at 1280 g/ha [5] of the same molecule?
**A.** 80%

**Q.** What about the pest or weed control at 1280 g/ha [6] of the same molecule?
**A.** 90%

**Q.** What about the “Veronica persica, herbicidal activity rated visually” value [18] of the same molecule?
**A.** 80%

**Q.** And the pest or weed control at 1280 g/ha [19]?
**A.** 100%

**Q.** What about the “Amaranthus retroflexus, herbicidal effect scored visually” value ([8]; 320 g/ha) of the same molecule?
**A.** 100%

**Q.** And the pest or weed control at 320 g/ha ([11]; 320 g/ha)?
**A.** 90%

**Q.** What about the pest or weed control at 1280 g/ha [13] of the same molecule?
**A.** 80%

**Q.** What about the pest or weed control at 1280 g/ha [14] of the same molecule?
**A.** 100%

**Q.** What about the “Veronica persica, herbicidal effect scored visually” value [20] of the same molecule?
**A.** 90%

**Q.** And the pest or weed control at 1280 g/ha [21]?
**A.** 100%

**Q.** And the inhibition at 100 µM (stock) [22]?
**A.** 50 to 70%
